Each structure is given as a SMILES string.

Series [1] concerns recombinant NL4-3 virus. The series is described as follows: HIV cell culture assay (antiviral activity, luciferase readout). The following applies: Human immunodeficiency virus 1, NL43, MT2, MT-2 cells infected for 4-5 days with recombinant NL4-3 virus carrying Renilla luciferase. Format: cell-based. The procedure: HIV cell culture assay—MT-2 cells, 293T cells and the proviral DNA clone of NL4-3 virus were obtained from the NIH AIDS Research and Reference Reagent Program. MT-2 cells were propagated in RPMI 1640 media supplemented with 10% heat inactivated fetal bovine serum (FBS), […]. The 293T cells were propagated in DMEM media supplemented with 10% heat inactivated FBS, […]. A recombinant NL4-3 proviral clone, in which a section of the nef gene was replaced with the Renilla luciferase gene, was used to make the reference virus used in these studies. The recombinant virus was prepared through transfection of the recombinant NL4-3 proviral clone into 293T cells using Transit-293 Transfection Reagent from Mirus Bio LLC (Madison, WI). Supernatent was harvested after 2-3 days and the amount of virus present was titered in MT-2 cells using luciferase enzyme activity as a marker by measuring luciferase enzyme activity. Luciferase was quantitated using the EnduRen Live Cell Substrate from Promega (Madison, Wis.). Antiviral activities of compounds toward the recombinant virus were quantified by measuring luciferase activity in MT-2 cells infected for 4-5 days with the recombinant virus in the presence of serial dilutions of the compound.
The 50% effective concentration (EC50) was calculated by using the exponential form of the median effect equation where (Fa)=1/[1+(ED50/drug conc.)m] (Johnson VA, Byington RT. Infectivity Assay. In Techniques in HIV Research. ed. Aldovini A, Walker BD. 71-76. New York: Stockton Press. 1990). The 50% inhibitory concentration (EC50) was calculated by using the exponential form of the median effect equation where percent inhibition=1/[1+(EC50/drug concentration)m], where m is a parameter that reflects the slope of the concentration-response curve.

Series [2] in a line: Compound cytotoxicity, XTT-based colorimetric assay. The following applies: human; uninfected MT2 cells, day 4, XTT assay. Type of series: cell-based. The method, then:
Compound cytotoxicity and the corresponding CC50 values were determined using the same protocol as described in the antiviral assay except that uninfected cells were used. Cytotoxicity was assessed on day 4 in uninfected MT2 cells by using a XTT (2,3-bis[2-Methoxy-4-nitro-5-sulfophenyl]-2H-tetrazolium-5-carboxyanilide inner salt)-based colorimetric assay (Sigma-Aldrich, St Louis, Mo.).
On the technique in general: Tetrazolium assays rely on reduction of a dye to a coloured formazan, in cell work by metabolically active cells.

In the case of `Cn1nc(NS(C)(=O)=O)c2c(Cl)ccc(-n3c([C@H](Cc4cc(F)cc(F)c4)NC(=O)Cn4nc(C(F)F)c5c4C(F)(F)[C@@H]4C[C@H]54)nc4nc(-c5ccn(CCCF)n5)ccc4c3=O)c21` (atropisomer, axis not shown; (P)) [Example 87, N-((S)-1-((3P)-3-(4-chloro-1-methyl-3-(methylsulfonamido)-1H-indazol-7-yl)-7-(1-(3-fluoropropyl)-1H-pyrazol-3-yl)-4-oxo-3,4-dihydropyrido[2,3-d]pyrimidin-2-yl)-2-(3,5-difluorophenyl)ethyl)-2-((3bS,4aR)-3-(difluoromethyl)-5,5-difluoro-3b,4,4a,5-tetrahydro-1H-cyclopropa[3,4]cyclopenta[1,2-c]pyrazol-1-yl)acetamide], the EC50 (in general, the concentration giving half of the maximal effect) in series [1] came to 0.036 nM. Besides, in series [2], the CC50 (commonly the concentration giving 50% cytotoxicity) at 4 day was greater than 100 nM.
For `Cn1nc(NS(C)(=O)=O)c2c(Cl)ccc(-n3c([C@H](Cc4cc(F)cc(F)c4)NC(=O)Cn4nc(C(F)F)c5c4C(F)(F)[C@@H]4C[C@H]54)nc4nc(-c5cnn(C6CC6)c5)ccc4c3=O)c21` (atropisomer, axis not shown; (P)) [Example 74, N-((S)-1-((3P)-3-(4-chloro-1-methyl-3-(methylsulfonamido)-1H-indazol-7-yl)-7-(1-cyclopropyl-1H-pyrazol-4-yl)-4-oxo-3,4-dihydropyrido[2,3-d]pyrimidin-2-yl)-2-(3,5-difluorophenyl)ethyl)-2-((3bS,4aR)-3-(difluoromethyl)-5,5-difluoro-3b,4,4a,5-tetrahydro-1H-cyclopropa[3,4]cyclopenta[1,2-c]pyrazol-1-yl)acetamide] the same measures were 0.054 nM and greater than 100 nM.
For `COc1cncc(-c2ccc3c(=O)n(-c4ccc(Cl)c5c(NS(C)(=O)=O)nn(C)c45)c([C@H](Cc4cc(F)cc(F)c4)NC(=O)Cn4nc(C(F)F)c5c4C(F)(F)[C@@H]4C[C@H]54)nc3n2)n1` (atropisomer, axis not shown; (P)) [Example 54, N-((S)-1-((3P)-3-(4-chloro-1-methyl-3-(methylsulfonamido)-1H-indazol-7-yl)-7-(6-methoxypyrazin-2-yl)-4-oxo-3,4-dihydropyrido[2,3-d]pyrimidin-2-yl)-2-(3,5-difluorophenyl)ethyl)-2-((3bS,4aR)-3-(difluoromethyl)-5,5-difluoro-3b,4,4a,5-tetrahydro-1H-cyclopropa[3,4]cyclopenta[1,2-c]pyrazol-1-yl)acetamide] the same measures were 0.039 nM and greater than 100 nM.
The like results for `Cc1cccc(-c2ccc3c(=O)n(-c4ccc(Cl)c5c(NS(C)(=O)=O)nn(C)c45)c([C@H](Cc4cc(F)cc(F)c4)NC(=O)Cn4nc(C(F)F)c5c4C(F)(F)[C@@H]4C[C@H]54)nc3n2)n1` (atropisomer, axis not shown; (P)) [Example 31, N-((S)-1-((3P)-3-(4-chloro-1-methyl-3-(methylsulfonamido)-1H-indazol-7-yl)-7-(6-methylpyridin-2-yl)-4-oxo-3,4-dihydropyrido[2,3-d]pyrimidin-2-yl)-2-(3,5-difluorophenyl)ethyl)-2-((3bS,4aR)-3-(difluoromethyl)-5,5-difluoro-3b,4,4a,5-tetrahydro-1H-cyclopropa[3,4]cyclopenta[1,2-c]pyrazol-1-yl)acetamide] were, in that order, 0.031 nM and greater than 100 nM.
In the case of `Cn1nc(NS(C)(=O)=O)c2c(Cl)ccc(-n3c([C@H](Cc4cc(F)cc(F)c4)NC(=O)Cn4nc(C(F)F)c5c4C(F)(F)[C@@H]4C[C@H]54)nc4nc(-c5ccc(OC(F)(F)F)cc5)ccc4c3=O)c21` (atropisomer, axis not shown; (P)) [Example 26, N-((S)-1-((3P)-3-(4-chloro-1-methyl-3-(methylsulfonamido)-1H-indazol-7-yl)-4-oxo-7-(4-(trifluoromethoxy)phenyl)-3,4-dihydropyrido[2,3-d]pyrimidin-2-yl)-2-(3,5-difluorophenyl)ethyl)-2-((3bS,4aR)-3-(difluoromethyl)-5,5-difluoro-3b,4,4a,5-tetrahydro-1H-cyclopropa[3,4]cyclopenta[1,2-c]pyrazol-1-yl)acetamide], the EC50 in series [1] stood at 0.51 nM. The molecule further gave a half-maximal cytotoxic concentration (CC50) at 4 day in series [2] greater than 100 nM.
For `Cc1nccnc1-c1ccc2c(=O)n(-c3ccc(Cl)c4c(NS(C)(=O)=O)nn(C)c34)c([C@H](Cc3cc(F)cc(F)c3)NC(=O)Cn3nc(C(F)F)c4c3C(F)(F)[C@@H]3C[C@H]43)nc2n1` (atropisomer, axis not shown; (P)) [Example 7, N-((S)-1-((3P)-3-(4-chloro-1-methyl-3-(methylsulfonamido)-1H-indazol-7-yl)-7-(3-methylpyrazin-2-yl)-4-oxo-3,4-dihydropyrido[2,3-d]pyrimidin-2-yl)-2-(3,5-difluorophenyl)ethyl)-2-((3bS,4aR)-3-(difluoromethyl)-5,5-difluoro-3b,4,4a,5-tetrahydro-1H-cyclopropa[3,4]cyclopenta[1,2-c]pyrazol-1-yl)acetamide] the same measures were 0.02 nM and greater than 100 nM.
In the case of `Cn1nc(NS(C)(=O)=O)c2c(Cl)ccc(-n3c([C@H](Cc4cc(F)cc(F)c4)NC(=O)Cn4nc(C(F)F)c5c4C(F)(F)[C@@H]4C[C@H]54)nc4nc(-c5ccccc5C(F)(F)F)ccc4c3=O)c21` (atropisomer, axis not shown; (P)) [Example 25, N-((S)-1-((3P)-3-(4-chloro-1-methyl-3-(methylsulfonamido)-1H-indazol-7-yl)-4-oxo-7-(2-(trifluoromethyl)phenyl)-3,4-dihydropyrido[2,3-d]pyrimidin-2-yl)-2-(3,5-difluorophenyl)ethyl)-2-((3bS,4aR)-3-(difluoromethyl)-5,5-difluoro-3b,4,4a,5-tetrahydro-1H-cyclopropa[3,4]cyclopenta[1,2-c]pyrazol-1-yl)acetamide], in series [1], the concentration giving a half-maximal response (EC50) is 0.06 nM. This molecule displayed a CC50 at 4 day in series [2] greater than 100 nM.
For `Cn1nc(NS(C)(=O)=O)c2c(Cl)ccc(-n3c([C@H](Cc4cc(F)cc(F)c4)NC(=O)Cn4nc(C(F)F)c5c4C(F)(F)[C@@H]4C[C@H]54)nc4nc(-c5ccc(S(C)(=O)=O)cc5)ccc4c3=O)c21` (atropisomer, axis not shown; (P)) [Example 35, N-((S)-1-((3P)-3-(4-chloro-1-methyl-3-(methylsulfonamido)-1H-indazol-7-yl)-7-(4-(methylsuIfonyl)phenyl)-4-oxo-3,4-dihydropyrido[2,3-d]pyrimidin-2-yl)-2-(3,5-difluorophenyl)ethyl)-2-((3bS,4aR)-3-(difluoromethyl)-5,5-difluoro-3b,4,4a,5-tetrahydro-1H-cyclopropa[3,4]cyclopenta[1,2-c]pyrazol-1-yl)acetamide] the same measures were 0.14 nM and greater than 100 nM.
For `Cn1nc(NS(C)(=O)=O)c2c(Cl)ccc(-n3c([C@H](Cc4cc(F)cc(F)c4)NC(=O)Cn4nc(C(F)F)c5c4C(F)(F)[C@@H]4C[C@H]54)nc4nc(-c5ccn(CC(F)(F)F)n5)ccc4c3=O)c21` (atropisomer, axis not shown; (P)) [Example 73, N-((S)-1-((3P)-3-(4-chloro-1-methyl-3-(methylsulfonamido)-1H-indazol-7-yl)-4-oxo-7-(1-(2,2,2-trifluoroethyl)-1H-pyrazol-3-yl)-3,4-dihydropyrido[2,3-d]pyrimidin-2-yl)-2-(3,5-difluorophenyl)ethyl)-2-((3bS,4aR)-3-(difluoromethyl)-5,5-difluoro-3b,4,4a,5-tetrahydro-1H-cyclopropa[3,4]cyclopenta[1,2-c]pyrazol-1-yl)acetamide] the same measures were 0.029 nM and greater than 100 nM.
For `Cn1nc(NS(C)(=O)=O)c2c(Cl)ccc(-n3c([C@H](Cc4cc(F)cc(F)c4)NC(=O)Cn4nc(C(F)F)c5c4C(F)(F)[C@@H]4C[C@H]54)nc4nc(-c5ncccn5)ccc4c3=O)c21` (atropisomer, axis not shown; (P)) [Example 47, N-((S)-1-((3P)-3-(4-chloro-1-methyl-3-(methylsulfonamido)-1H-indazol-7-yl)-4-oxo-7-(pyrimidin-2-yl)-3,4-dihydropyrido[2,3-d]pyrimidin-2-yl)-2-(3,5-difluorophenyl)ethyl)-2-((3bS,4aR)-3-(difluoromethyl)-5,5-difluoro-3b,4,4a,5-tetrahydro-1H-cyclopropa[3,4]cyclopenta[1,2-c]pyrazol-1-yl)acetamide], the EC50 in series [1] was determined as 0.067 nM. Moreover, in series [2], the CC50 at 4 day is greater than 100 nM.
